Results reported in US9284252B2, “Use of jasmonate ester derivatives for treating benign hyperproliferative skin disorders” (SEPAL PHARMA LTD., priority 2009, dated 2016).

Experiments:
[1] = tested on: reconstituted three-dimensional human epidermis model (EPISKIN-Standard Model); assay: Skin irritation assay, reconstituted human epidermis model EPISKIN-SM; conditions: 15 minutes application, 42 hours post-incubation
Description: (§1) In order to test the toxicity of jasmonate ester derivatives in human skin, skin irritation assay using a reconstituted three-dimensional human epidermis model (EPISKIN-Standard Model™; conducted at BSL-Bioservices, Planegg, Germany) was performed.
(§2) Irritant potential of the compound was assessed from the relative mean tissue viabilities obtained compared to the corresponding negative control tissues concurrently treated with Aqua Dest (distilled water). The release of Interleukin-1α (IL-1α) into the tissue culture medium was determined to confirm the obtained results.

[2] = tested on: reconstituted three-dimensional human epidermis model (EpiDerm skin model); assay: Skin corrosion assay, EpiDerm skin model; format: cell-based
Description: In particular, MJ was applied topically to the EpiDerm™ tissue and incubated for 3 and 60 minutes at each time. After the incubation period, tissue viability was assessed via MTT reduction assay.

[3] = tested on: UVB-damaged skin in SKH-1 mice; assay: Skin lesion formation induced by UVB, damaged skin mouse model of actinic keratosis; format: in vivo
From the text: The efficacy of Compound C was further evaluated in an animal model of Actinic Keratosis (AK). The purpose of the study was to determine the effect of compound C against lesion formation in UVB-damaged skin in SKH-1 mice, a mouse model of AK and non-melanoma skin cancers.
The study was divided to two parts: pre-study that included UVB irradiation to induce the damage to the skin, and efficacy study that included the treatment with Compound C compared to standard treatment and efficacy evaluation. After 16 weeks of UVB irradiation, 60% of the animals developed lesions, and treatment was started on week 17 and continued for 7.5 weeks. The total duration of the study was 23.5 weeks.
The study included female mice, 6-8 weeks of age at study initiation. After 16 weeks of UVB irradiation, when 60% (36/60) of the animals developed at least 1 lesion, mice were randomly stratified into 12 mice per group (see Table 4) according to score and number of lesions. Picato gel (Ingenol mebutate, Leo Pharma Inc.) was used as the positive control.
For UVB irradiation, Vilber-Lourmat (France) Lamp VL-6.M was used, irradiating at 312 nm with an intensity of 0.89 mW/cm^2 at a distance of 15 cm. Determination of UVB irradiation Minimal Erythemal Dose (MED) was performed prior to the beginning of the study (during the pre-study period). Animals were UVB irradiated during different time periods (starting at 30 sec) and the presence of erythema was recorded 24 and 48 hours later.
Observations for clinical scoring and signs of erythema and edema, were performed twice a week. Erythema and edema scoring were performed according to the grading levels described in Table 5 below. Lesion numbers were determined once a week during Weeks 4-6 and twice a week during Weeks 7-16 until treatment started. During treatment, lesion number and erythema-edema scores were performed twice a week.

[4] = tested on: actinic keratosis (AK) cell line HT297.T; assay: XTT proliferation assay in actinic keratosis cell line; format: cell-based; conditions: 72 h, 3 days treatment, HT297.T cells
Description: IC50 values were calculated from the mean of triplicate wells for each experiment. […]

[5] = tested on: metastatic melanoma cells; conditions: cited from earlier work
[6] = tested on: reconstituted three-dimensional human epidermis model (EPISKIN-Standard Model)
Description: as §1, §2

[7] = format: in vitro ADME; conditions: human
Description: These studies were conducted by BSL-Bioservices (Planegg, Germany) and the samples were analyzed by ATC (Liege, Belgium).

[8] = tested on: cervical cancer cell lines; conditions: range of cervical cancer cell lines; cited from earlier work
[9] = tested on: malignant keratinocytes A431 cell line; conditions: cited from earlier work
lymphomas in mice = conditions: cited from earlier work

CCCCCCCCCCCCOS(=O)(=O)[O-].[Na+] [5% SDS solution]
Mean relative tissue viability (%) (MTT reduction) [1]: 3.3 ± 0.6%
IL-1α release ([1]; tissue culture medium): 236.7 ± 23.0 pg/mL

[K+].[OH-] [8N KOH]
Mean relative tissue viability (%) (MTT reduction) after 3 minutes ([2]; 3 minutes treatment): 26 ± 5.3%
Mean relative tissue viability (%) (MTT reduction) after 60 minutes ([2]; 60 minutes treatment): 14 ± 3.7%

CC/C=C\CC1C(=O)CCC1CC(=O)Oc1cccc2cccnc12 (stereo not shown) [Compound C]
maximal reduction in lesion number on Day 50 ([3]; Compound C 2.5% topical, group 3F): 65%
maximal reduction in lesion number on Day 50 ([3]; Compound C 40% topical, group 5F): 72%
maximal reduction in lesion number on Day 50 ([3]; group 4F (5% topical per Table 4)): 70%
histopathology evaluation of skin ([3]; groups treated with compound C): look similar to naïve (healthy) animals
gross pathology examination ([3]; mouse, in vivo): No abnormality was detected
skin erythema or edema following topical treatment ([3]; mouse, in vivo): no skin erythema or edema
reduction in total area of lesions and total tumor area ([3]; topical, concentration not given): 70%
IC50 [4]: 0.25 µM

CC/C=C\CC1C(=O)CCC1CC(=O)OC (stereo not shown) [MJ, methyl jasmonate]
cell motility [5]: suppresses cell motility
development of lung metastases [5]: inhibits the development of lung metastases
irritation classification according to ECVAM SIVS recommendations [6]: non-irritant
corrosion classification according to OECD Guideline and EC Commission Regulation [2]: non-corrosive
local intra-skin concentrations [7]: ~1 M
cytotoxicity [8]: cytotoxic
toxicity on A431 cell line [9]: low toxicity
IC50 [4]: 21.1 µM
prevention of development of lymphomas (lymphomas in mice): effective

CC/C=C\C[C@H]1C(=O)CC[C@@H]1CC(=O)O [jasmonic acid]
toxicity on A431 cell line [9]: low toxicity
